Measurements taken from patent publication US20230105725A1, “HIGHLY SAFE NON-LAMELLAR LIQUID CRYSTAL FORMING COMPOSITION” (FARNEX INCORPORATED, priority 2020, published 2023).

Experiment: Viscosity of the amphipathic compound
Format: physicochemical
Settings: not given
Method: Specifically, the amphipathic compound represented by the general formula (I) has a viscosity of preferably 15.0 Pa·s or less, more preferably 11.0 Pa·s or less, further preferably 6.0 Pa·s or less, by itself, as measured at 25° C. This viscosity can be measured using, for example, a viscosity and viscoelasticity measuring apparatus (Gemini II, Malvern Instruments Ltd.) at a temperature of 25° C.

Row | Viscosity [Pa·s] | SMILES
1 | 1.7 | CC(=CCCC(=O)OCC(CO)(CO)CO)CCCC(C)CCCC(C)CCCC(C)C (stereo not shown) [C22 pentaerythritol ester, mono-O-(5,9,13,17-tetramethyloctadec-4-enoyl)pentaerythritol]

Same assay, conditions: at shear velocity of 92 1/s

Row | Viscosity [Pa·s] | SMILES
2 | 0.37 | CC(C)=CCC/C(C)=C/CC/C(C)=C/CCC(C)=CCCC(=O)OCC(O)CO (stereo not shown) [glyceryl geranylgeranylacetate, mono-O-(5,9,13,17-tetramethyloctadeca-4,8,12,16-tetraenoyl)glycerol]

Experiment: Gel formation test of precursor formulations in excess aqueous medium
Format: physicochemical
Settings: self-organizing lipid (SOL) criterion
Method: The precursor formulations of Nos. 1 to 75 thus prepared were subjected to a gel formation test. An aliquot (about 100 to 300 mg) of each precursor formulation was added to an excess aqueous medium (about 0.5 to 2 mL of injectable water for Nos. 1 to 61 and 64 to 75 or phosphate buffered saline (PBS) of pH 7.4 for Nos. 62 and 63) in a vial, and mixed at room temperature (25° C.) with a spatula or a vortex mixer. As a result, all the precursor formulations of Nos. 1 to 75 produced gel compositions having colorless transparent to white turbid appearance separated in the excess aqueous medium. […]

Row | gel formation of the lipid used alone by mixing with water | SMILES
3 | do not form a gel | CC(=CCCC(=O)OCC(C)O)CCCC(C)CCCC(C)C (stereo not shown) [C17 propylene glycol ester, mono-O-(5,9,13-trimethyltetradec-4-enoyl)propylene glycol]
4 | do not form a gel | C/C(=C\C(=O)OCC(C)O)CCCC(C)CCCC(C)CCCC(C)C (stereo not shown) [C20 propylene glycol ester, mono-O-(3,7,11,15-tetramethylhexadec-2-enoyl)propylene glycol]
5 | do not form a gel | CC(=CCC(=O)OCC(C)O)CCCC(C)CCCC(C)CCCC(C)C (stereo not shown) [C21 propylene glycol ester, mono-O-(4,8,12,16-tetramethylheptadec-3-enoyl)propylene glycol]
6 | do not form a gel | CC(=CCCC(=O)OCCC(C)O)CCCC(C)CCCC(C)CCCC(C)C (stereo not shown) [C22 butylene glycol ester, mono-O-(5,9,13,17-tetramethyloctadec-4-enoyl)1,3-butylene glycol]
7 | do not form a gel | CC(=CCCC(=O)OCCO)CCCC(C)CCCC(C)CCCC(C)C (stereo not shown) [C22 ethylene glycol ester, mono-O-(5,9,13,17-tetramethyloctadec-4-enoyl)ethylene glycol]
8 | do not form a gel | CC(=CCCC(=O)OCCC(C)(C)O)CCCC(C)CCCC(C)CCCC(C)C (stereo not shown) [C22 isoprene glycol ester, mono-O-(5,9,13,17-tetramethyloctadec-4-enoyl)3-methyl-1,3-butanediol]
9 | do not form a gel | CC(C)CCCC(C)CCCC(C)CCCC(C)CC(=O)OCC(C)O (stereo not shown) [saturated C20 propylene glycol ester, mono-O-(3,7,11,15-tetramethylhexadecanoyl)propylene glycol]
10 | do not form a gel | CC(C)CCCC(C)CCCC(C)CCCC(C)CCCC(=O)OCC(C)O (stereo not shown) [saturated C22 propylene glycol ester, mono-O-(5,9,13,17-tetramethyloctadecanoyl)propylene glycol]
